Data from publication PMC9318782, “Assessments of Ceanothanes Triterpenes as Cholinesterase Inhibitors: An Investigation of Potential Agents with Novel Inspiration for Drug Treatment of Neurodegenerative Diseases” (Metabolites, 2022).
Read-outs that look alike come from different tables or passages of the source.

Legend:
[1] = molecular target: T1, AChE from human blood (Homo sapiens, UniProt P22303); test: biochemical; conditions: AChE obtained from human blood samples; Ellman; read-out: IC50 ± SEM, AChE hb
T1 construct: the enzyme extracted from human blood; from tissue; host or cells: human whole blood, erythrocytes lysed with Triton X-100
Protocol: (§1) The Ellman assay was used to test acetylcholinesterase (AChE from Electrophorus electricus, and human blood) and butyrylcholinesterase (BChE from equine serum) inhibition activity. Human blood was drawn using sterilized syringes and stored in BD Vacutainer tubes with heparin as an anticoagulant at 4 °C for 1 h. To lyse the erythrocytes, 1 mL of a 1:50 dilution of the blood sample was prepared with the non-ionic detergent triton X-100. A mixture of the DTNB (125 μL), enzyme solution (25 μL), and compound solution (25 μL) was prepared and incubated at room temperature for 20 min. All the assays were under 0.1 M KH2PO4/K2HPO4 buffer, pH 8.0. The substrate was added to start the enzymatic reaction. […] All measurements were performed fivefold as triplicate. The compounds were assayed in a dilution interval of 15 to 500 μg/mL. […] The percentage of inhibition was determined as follows: I(%)=(1−Aprobe/Ablank)100

[2] = molecular target: T2, AChE (Electrophorus electricus, UniProt O42275); test: biochemical; format: biochemical; conditions: for Inhibition Type: Lineweaver-Burk and Dixon plots
Protocol: To investigate the inhibition mechanism of the tested compounds on AChE, a kinetic analysis was performed. The experiments were carried out using a combination of four substrate concentrations and three inhibitor concentrations with the view to obtain a double reciprocal plot (Lineweaver–Burk), in which each point is the mean of three different experiments. A parallel control with no inhibitor in the mixture allowed adjusting activities to be measured at various times.

[3] = molecular target: T3, PAS of EeAChE (Electrophorus electricus, UniProt O42275); test: Propidium iodide displacement assay; format: binding; conditions: 0.25 h, read-out: % Displacement of Propidium Iodide
T3 construct: purchased Sigma-Aldrich
Protocol: […] Propidium iodide is known for ability to specifically binding to the PAS region of AChE.
The percentage inhibition was calculated by the following expression: 100-(IFi/IF0 × 100), where IF1 and IF0 correspond to fluorescence intensities with and without the test compound, respectively. Each assay was carried out in triplicate.

[4] = molecular target: T4, butyrylcholinesterase (BChE from equine serum) (Equus caballus, UniProt P81908); test: Ellman assay, BChE inhibition; format: biochemical
T4 construct: butyrylcholinesterase (from equine serum) were purchased from Sigma-Aldrich; purchased Sigma-Aldrich; host or cells: equine serum
Protocol: as §1

[5] = molecular target: T5, AChE from Electrophorus electricus (Electrophorus electricus, UniProt O42275); test: biochemical; conditions: AChE from Electrophorus electricus (commercial enzyme); Ellman; Table 1; read-out: IC50 ± SEM, AChE
T5 construct: purchased Sigma-Aldrich
Protocol: The Ellman assay was used to test acetylcholinesterase (AChE from Electrophorus electricus, and human blood) and butyrylcholinesterase (BChE from equine serum) inhibition activity. Human blood was drawn using sterilized syringes and stored in BD Vacutainer tubes with heparin as an anticoagulant at 4 °C for 1 h. To lyse the erythrocytes, 1 mL of a 1:50 dilution of the blood sample was prepared with the non-ionic detergent triton X-100. A mixture of the DTNB (125 μL), enzyme solution (25 μL), and compound solution (25 μL) was prepared and incubated at room temperature for 20 min. All the assays were under 0.1 M KH2PO4/K2HPO4 buffer, pH 8.0. The substrate was added to start the enzymatic reaction. […] All measurements were performed fivefold as triplicate. The compounds were assayed in a dilution interval of 15 to 500 μg/mL.

[6] = molecular target: T2, AChE; conditions: cited from earlier work; for IC50: read-out: IC50, AChE inhibitory activity
[7] = alkaloids from Esenbeckia leiocarpa ref 40

T4 sequence (P81908 whole entry): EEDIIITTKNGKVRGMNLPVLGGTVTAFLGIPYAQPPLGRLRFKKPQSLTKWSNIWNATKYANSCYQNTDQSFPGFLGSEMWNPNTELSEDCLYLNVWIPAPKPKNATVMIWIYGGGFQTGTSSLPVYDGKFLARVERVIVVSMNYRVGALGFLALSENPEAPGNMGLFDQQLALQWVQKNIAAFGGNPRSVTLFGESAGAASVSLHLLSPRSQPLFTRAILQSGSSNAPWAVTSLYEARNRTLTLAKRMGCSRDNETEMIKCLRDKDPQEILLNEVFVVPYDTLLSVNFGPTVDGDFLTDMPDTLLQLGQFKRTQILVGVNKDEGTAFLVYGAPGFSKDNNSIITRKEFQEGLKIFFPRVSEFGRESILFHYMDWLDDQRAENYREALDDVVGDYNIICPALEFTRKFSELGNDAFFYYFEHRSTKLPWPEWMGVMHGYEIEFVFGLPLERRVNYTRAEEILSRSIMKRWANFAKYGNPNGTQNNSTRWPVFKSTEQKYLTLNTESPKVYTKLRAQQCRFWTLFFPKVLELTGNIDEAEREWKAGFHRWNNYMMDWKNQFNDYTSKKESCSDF
T1 sequence (P22303 32-617 isoform P22303-2 limits assumed): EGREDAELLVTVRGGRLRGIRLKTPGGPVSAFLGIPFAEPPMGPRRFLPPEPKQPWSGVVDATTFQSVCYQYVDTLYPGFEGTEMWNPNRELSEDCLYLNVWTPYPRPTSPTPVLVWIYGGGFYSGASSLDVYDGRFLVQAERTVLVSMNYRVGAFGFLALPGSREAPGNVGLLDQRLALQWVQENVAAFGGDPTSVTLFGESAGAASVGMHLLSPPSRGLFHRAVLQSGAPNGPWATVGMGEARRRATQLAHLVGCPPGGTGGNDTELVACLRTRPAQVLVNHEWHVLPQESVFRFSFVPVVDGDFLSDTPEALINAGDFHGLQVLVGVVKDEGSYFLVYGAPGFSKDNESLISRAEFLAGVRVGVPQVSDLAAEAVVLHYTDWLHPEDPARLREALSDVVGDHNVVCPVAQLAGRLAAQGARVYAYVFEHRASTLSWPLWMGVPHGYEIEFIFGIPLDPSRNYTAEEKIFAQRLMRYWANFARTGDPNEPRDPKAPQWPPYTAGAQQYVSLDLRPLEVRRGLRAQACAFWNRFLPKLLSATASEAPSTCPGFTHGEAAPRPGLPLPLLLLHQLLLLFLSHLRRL
T3 sequence (O42275 24-633): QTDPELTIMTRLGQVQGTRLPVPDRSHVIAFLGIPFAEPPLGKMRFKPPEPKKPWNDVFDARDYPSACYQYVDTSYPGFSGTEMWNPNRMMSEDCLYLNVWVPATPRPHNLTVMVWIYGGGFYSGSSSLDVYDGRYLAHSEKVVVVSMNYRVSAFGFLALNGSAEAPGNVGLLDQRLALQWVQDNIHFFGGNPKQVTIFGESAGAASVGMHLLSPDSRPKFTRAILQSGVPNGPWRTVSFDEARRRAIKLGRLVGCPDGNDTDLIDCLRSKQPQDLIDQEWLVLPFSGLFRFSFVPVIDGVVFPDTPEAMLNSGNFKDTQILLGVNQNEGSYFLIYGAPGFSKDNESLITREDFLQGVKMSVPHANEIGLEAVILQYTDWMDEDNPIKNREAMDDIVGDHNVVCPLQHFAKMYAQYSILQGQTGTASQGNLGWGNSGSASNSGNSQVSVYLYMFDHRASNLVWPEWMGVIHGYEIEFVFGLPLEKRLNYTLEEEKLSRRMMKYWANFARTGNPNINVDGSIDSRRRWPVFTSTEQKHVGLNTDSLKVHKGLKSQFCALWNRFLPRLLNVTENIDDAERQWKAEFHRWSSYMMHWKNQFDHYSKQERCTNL
T5 sequence (O42275 24-633): as above
T2 sequence (O42275 24-633): as above

Row | SMILES | IC50 [1] | Ki [2] | Inhibition Type [2] | inhibition at 0.75 µM [3] | inhibition at 1.5 µM ([3]; 1.5 µM compound, EeAChE) | IC50 [4] | IC50 [5] | inhibition at 1.5 µM [3] | Inhibition Type ([2]; listed as compound 3) | IC50 [6] | IC50 [6, 7] | mode of AChE inhibition [6]
1 | C=C(C)[C@@H]1CC[C@]2(C(=O)O)CC[C@]3(C)C(CCC4[C@@]5(C)C(C=O)=CC(C)(C)C5CC[C@]43C)C12 (stereo partly shown) [Compound 1, Zizyberenalic acid] | 215 ± 5 nM | 46 nM | mixed competitive mode inhibition | 19.7 ± 0.8% | 26.3 ± 1.3% | > 500000 nM | 184 ± 0.7 nM |  |  |  |  | 
2 | C=C(C)[C@@H]1CC[C@]2(C(=O)O)CC[C@]3(C)C(CCC4[C@@]5(C)C(C=O)C(O)C(C)(C)C5CC[C@]43C)C12 (stereo partly shown) [Compound 2, Zizyberanalic acid] | 173 ± 6 nM | 28 nM | mixed competitive mode inhibition |  |  | > 500000 nM | 150 ± 0.9 nM | 23.2 ± 0.8% |  |  |  | 
3 | C=C(C)[C@@H]1CC[C@]2(C(=O)O)CC[C@]3(C)[C@H](CC[C@@H]4[C@@]5(C)[C@@H](C(=O)O)[C@H](O)C(C)(C)[C@@H]5CC[C@]43C)[C@@H]12 [Compound 3, Ceanothic acid] | 146 ± 3 nM | 55 nM | partially competitive | 34.2 ± 0.6% | 45.6 ± 1.1% | > 500000 nM | 125 ± 0.4 nM |  | competitive and reversible |  |  | 
4 | C=C(C)[C@@H]1CC[C@]2(C(=O)O)CC[C@]3(C(=O)O)[C@H](CC[C@@H]4[C@@]5(C)C=CC(C)(C)[C@@H]5CC[C@]43C)[C@@H]12 [Compound 4, Ceanothenic acid] | 219 ± 4 nM | 22 nM | mixed competitive mode inhibition | 20.1 ± 1% | 26.7 ± 1.3% | > 500000 nM | 188 ± 0.5 nM |  |  |  |  | 
5 | C=C(C)[C@@H]1CC[C@]2(C(=O)O)CC[C@]3(C)[C@H](CC[C@@H]4[C@@]5(C)[C@H](CO)[C@@H](O)C(C)(C)[C@@H]5CC[C@]43C)[C@@H]12 [Compound 5, Ceanothanolic acid] | 181 ± 0.7 nM | 56 nM | mixed competitive mode inhibition | 14.5 ± 0.3% | 19.3 ± 1.5% | > 500000 nM | 155 ± 0.1 nM |  |  |  |  | 
6 | C=C(C)[C@@H]1CC[C@]2(C(=O)O)CC[C@]3(C)C(CCC4[C@@]5(C)C(C(=O)O)C(=O)C(C)(C)C5CC[C@]43C)C12 (stereo partly shown) [Compound 6, 3-oxo-ceanothic acid] | 199 ± 9 nM | 47 nM | mixed competitive mode inhibition | 24.3 ± 0.7% | 40.5 ± 1.5% | > 500000 nM | 172 ± 1.2 nM |  |  |  |  | 
7 | C=C(C)[C@@H]1CC[C@]2(C(=O)O)CC[C@]3(C)C(CCC4[C@@]5(C)C(C(=O)O)C(OC(C)=O)C(C)(C)C5CC[C@]43C)C12 (stereo partly shown) [Compound 7, 3-O-acetyl-ceanothic acid] | 207 ± 6 nM | 50 nM | partially competitive |  |  | > 500000 nM | 179 ± 0.1 nM | 32.1 ± 1.3% |  |  |  | 
8 | O=c1c(O)c(-c2ccccc2)oc2cc(O)cc(O)c12 [galangin] |  |  |  |  |  |  |  |  |  | 120000 nM |  | 
9 | COc1cc2nc3occc3c(OC)c2cc1OC [kokusaginine] |  |  |  |  |  |  |  |  |  |  | 46000 nM | 
10 | CCCc1cc(=O)c2ccccc2n1C [leptomerine] |  |  |  |  |  |  |  |  |  |  | 2500 nM | 
11 | C[C@H]1[C@H](C)CC[C@]2(C(=O)O)CC[C@]3(C)C(=CC[C@@H]4[C@@]5(C)CC[C@H](O)C(C)(C)[C@@H]5CC[C@]43C)[C@H]12 [ursolic acid] |  |  |  |  |  |  |  |  |  |  |  | competitive/non-competitive
